According to US20240124442A1, “TRICYCLIC-AMIDO-BICYCLIC PRMT5 INHIBITORS” (AMGEN INC., priority 2021, published 2024):

Experiments:
HCT116 MTAP null cells = test: HCT116 MTAP null cell line proliferation / cell viability (CellTiter-Glo, 6 days); assay type: cell-based; conditions: 144 h; HCT116 MTAP null cells, 6 days treatment, CellTiter-Glo cell viability; read-out: HCT-116 MTAP null IC50
Outline: (§1)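 WT vs MTAP-null HCT116, 6 d drug, CTG readout. 1:3 × 8–9 pts (top 1/10 μM) or 1:2 × 22 pts (top 10/50 μM). IC50 by 4PL or Hill −1 fit.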

HCT116 WT cells = test: HCT116 WT (parent) cell line proliferation / cell viability (CellTiter-Glo, 6 days); assay type: cell-based; conditions: Homo sapiens, HCT-116, 144 h, 6 days treatment
Outline: as §1

Row | Structure (SMILES) | IC50 (HCT116 MTAP null cells) [nM] | IC50 (HCT116 WT cells) [nM]
1 | Cc1cc2nc(N)c3cnn(C)c3c2cc1C(=O)N(C)[C@@H]1COCc2c1ccc(C(F)(F)F)c2F (single isomer, unassigned) [Example 436] | 2 | 23
2 | Cc1cc2nc(N)c3cnn(C)c3c2cc1C(=O)N(C)[C@H]1COCc2c1ccc(C(F)(F)F)c2F (single isomer, unassigned) [Example 437] | 41 | 687
3 | CCOc1ccc2c(n1)COC[C@H]2N(C)C(=O)c1ccc2nc(N)c3c(cnn3C)c2c1 (single isomer, unassigned) [Example 438] | 193 | 25200
4 | CN(C(=O)c1cc2c(cc1F)nc(N)c1c2cnn1C)[C@@H]1CCCc2nc(C(F)(F)F)ccc21 (single isomer, unassigned) [Example 439] | 192 | 9460
5 | CN(C(=O)c1cc2c(cc1F)nc(N)c1c2cnn1C)[C@@H]1COCc2c1ccc(C(F)(F)F)c2F (single isomer, unassigned) [Example 440] | 48 | 3010
6 | CN(C(=O)c1ccc2nc(N)c3cnn(C)c3c2c1)[C@@H]1CCOCc2nc(C(F)(F)F)ccc21 (single isomer, unassigned) [Example 441] | 181 | 9310
7 | CN(C(=O)c1ccc2nc(N)c3c(c2c1)COC3)[C@@H]1CCc2nc(C(F)(F)F)ccc21 (single isomer, unassigned) [Example 527] | 143 | 7520
8 | CN(C(=O)c1ccc2nc(N)c3c(c2c1)COC3)[C@H]1CCc2nc(C(F)(F)F)ccc21 (single isomer, unassigned) [Example 528] | 5280 | 50000
9 | CN(C(=O)c1ccc2nc(N)c3c(c2c1)COC3)[C@@H]1CCc2cc(OC(F)(F)F)ccc21 (single isomer, unassigned) [Example 531] | 113 | 4860
10 | CN(C(=O)c1ccc2nc(N)c3c(c2c1)COC3)[C@H]1CCc2cc(OC(F)(F)F)ccc21 (single isomer, unassigned) [Example 532] | 2510 | 6680
11 | Nc1nc2ccc(C(=O)N(CC3CC3)[C@@H]3COc4cc(C(F)(F)F)ccc43)cc2c2c1COC2 (single isomer, unassigned) [Example 535] | 7 | 198
12 | Nc1nc2ccc(C(=O)N(CC3CC3)[C@H]3COc4cc(C(F)(F)F)ccc43)cc2c2c1COC2 (single isomer, unassigned) [Example 536] | 728 | 11700
13 | C[C@H]1OCc2c1c(N)nc1ccc(C(=O)N(C)[C@@H]3COc4cc(C(F)(F)F)ccc43)cc21 (single isomer, unassigned) [Example 537] | 21 | 881
14 | C[C@H]1OCc2c1c(N)nc1ccc(C(=O)N(C)[C@H]3COc4cc(C(F)(F)F)ccc43)cc21 (single isomer, unassigned) [Example 538] | 1840 | 23600
15 | CCN(C(=O)c1ccc2nc(N)c3c(c2c1)CO[C@@H]3C)[C@@H]1COc2cc(C(F)(F)F)ccc21 (single isomer, unassigned) [Example 539] | 15 | 663
16 | CCN(C(=O)c1ccc2nc(N)c3c(c2c1)CO[C@@H]3C)[C@H]1COc2cc(C(F)(F)F)ccc21 (single isomer, unassigned) [Example 540] | 722 | 18600
17 | Nc1nc2cc(F)c(C(=O)N(C3CC3)[C@@H]3COc4cc(C(F)(F)F)ccc43)cc2c2c1COC2 (single isomer, unassigned) [Example 554] | 21 | 1400
18 | Nc1nc2cc(F)c(C(=O)N(C3CC3)[C@H]3COc4cc(C(F)(F)F)ccc43)cc2c2c1COC2 (single isomer, unassigned) [Example 555] | 1620 | 13300
19 | Nc1nc2cc(F)c(C(=O)N(CC3CC3)[C@@H]3COc4cc(C(F)(F)F)ccc43)cc2c2c1COC2 (single isomer, unassigned) [Example 556] | 11 | 133
20 | Nc1nc2cc(F)c(C(=O)N(CC3CC3)[C@H]3COc4cc(C(F)(F)F)ccc43)cc2c2c1COC2 (single isomer, unassigned) [Example 557] | 665 | 10500
21 | CN(C(=O)c1cc2c3c(c(N)nc2cc1Cl)COC3)[C@@H]1CCc2nc(C(F)(F)F)ccc21 (single isomer, unassigned) [Example 558] | 17 | 941
22 | CN(C(=O)c1cc2c3c(c(N)nc2cc1Cl)COC3)[C@H]1CCc2nc(C(F)(F)F)ccc21 (single isomer, unassigned) [Example 559] | 1280 | 41400

Other lines, results leading:

Row | IC50 (HCT116 MTAP null cells) [nM] | IC50 (HCT116 WT cells) [nM] | Structure (SMILES)
23 | 63 | 2470 | CN(C(=O)c1cc2c3c(c(N)nc2cn1)COC3)[C@@H]1COc2cc(C(F)(F)F)ccc21 (single isomer, unassigned) [Example 522]
24 | 2720 | 10000 | CN(C(=O)c1cc2c3c(c(N)nc2cn1)COC3)[C@H]1COc2cc(C(F)(F)F)ccc21 (single isomer, unassigned) [Example 523]
25 | 396 | 24500 | COc1ccc2c(n1)OC[C@H]2N(C)C(=O)c1ccc2nc(N)c3c(c2c1)COC3 (single isomer, unassigned) [Example 524]
26 | 4160 | 50000 | COc1ccc2c(n1)OC[C@@H]2N(C)C(=O)c1ccc2nc(N)c3c(c2c1)COC3 (single isomer, unassigned) [Example 525]
27 | 52 | 3820 | CN(C(=O)c1ccc2nc(N)c3c(c2c1)COC3)[C@@H]1COc2cc(OC(F)F)ccc21 (single isomer, unassigned) [Example 526]
28 | 89 | 5590 | CN(C(=O)c1ccc2nc(N)c3c(c2c1)COC3)C1COc2nc(C(F)(F)F)ccc21 (single isomer, unassigned) [Example 529]
29 | 2510 | 40200 | CN(C(=O)c1ccc2nc(N)c3c(c2c1)COC3)[C@H]1COc2nc(C(F)(F)F)ccc21 (single isomer, unassigned) [Example 530]
30 | 17 | 816 | CCN(C(=O)c1ccc2nc(N)c3c(c2c1)COC3)[C@@H]1COc2cc(C(F)(F)F)ccc21 (single isomer, unassigned) [Example 533]
31 | 1730 | 23900 | CCN(C(=O)c1ccc2nc(N)c3c(c2c1)COC3)[C@H]1COc2cc(C(F)(F)F)ccc21 (single isomer, unassigned) [Example 534]
32 | 77 | 3800 | CN(C(=O)c1cc2c3c(c(N)nc2cn1)COC3)[C@@H]1COc2cc(C#N)ccc21 (single isomer, unassigned) [Example 541]
33 | 785 | 46000 | CN(C(=O)c1cc2c3c(c(N)nc2cn1)COC3)[C@@H]1COc2cc(C(F)(F)F)ncc21 (single isomer, unassigned) [Example 542]
34 | 49 | 1460 | CCN(C(=O)c1cc2c3c(c(N)nc2cn1)COC3)[C@@H]1COc2cc(C(F)(F)F)ccc21 (single isomer, unassigned) [Example 543]
35 | 5230 | 15200 | CCN(C(=O)c1cc2c3c(c(N)nc2cn1)COC3)[C@H]1COc2cc(C(F)(F)F)ccc21 (single isomer, unassigned) [Example 544]
36 | 68 | 3250 | CN(C(=O)c1cc2c3c(c(N)nc2cn1)COC3)[C@@H]1COc2cc(C(F)(F)F)cc(F)c21 (single isomer, unassigned) [Example 545]
37 | 9590 | 30700 | CN(C(=O)c1cc2c3c(c(N)nc2cn1)COC3)[C@H]1COc2cc(C(F)(F)F)cc(F)c21 (single isomer, unassigned) [Example 546]
38 | 122 | 2460 | Nc1nc2cnc(C(=O)N(C3CC3)[C@@H]3COc4cc(C(F)(F)F)ccc43)cc2c2c1COC2 (single isomer, unassigned) [Example 547]
39 | 58 | 3060 | CN(C(=O)c1cc2c3c(c(N)nc2cn1)COC3)[C@@H]1COc2cc(Cl)c(C(F)(F)F)cc21 (single isomer, unassigned) [Example 548]
40 | 17 | 1340 | CN(C(=O)c1cc2c3c(c(N)nc2cc1F)COC3)[C@@H]1COc2cc(C#N)ccc21 (single isomer, unassigned) [Example 551]
41 | 34 | 1220 | CN(C(=O)c1cc2c3c(c(N)nc2cc1F)COC3)[C@@H]1COc2cc(C(F)(F)F)ccc21 (single isomer, unassigned) [Example 552]
42 | 1380 | 11400 | CN(C(=O)c1cc2c3c(c(N)nc2cc1F)COC3)[C@H]1COc2cc(C(F)(F)F)ccc21 (single isomer, unassigned) [Example 553]
43 | 12 | 594 | CN(C(=O)c1cc2c3c(c(N)nc2cc1Cl)COC3)[C@@H]1COc2cc(C(F)(F)F)ccc21 (single isomer, unassigned) [Example 560]
44 | 657 | 10800 | CN(C(=O)c1cc2c3c(c(N)nc2cc1Cl)COC3)[C@H]1COc2cc(C(F)(F)F)ccc21 (single isomer, unassigned) [Example 561]
45 | 26 | 1820 | CN(C(=O)c1cc2c3c(c(N)nc2cc1Cl)COC3)[C@@H]1COc2nc(C(F)(F)F)ccc21 (single isomer, unassigned) [Example 562]
46 | 1960 | 25100 | CN(C(=O)c1cc2c3c(c(N)nc2cc1Cl)COC3)[C@H]1COc2nc(C(F)(F)F)ccc21 (single isomer, unassigned) [Example 563]
47 | 19 | 925 | CN(C(=O)c1cc2c3c(c(N)nc2cc1Cl)COC3)[C@@H]1COc2cc(S(C)(=O)=O)ccc21 (single isomer, unassigned) [Example 564]
